ChEMBL document CHEMBL4190164 (Medchemcomm, 2016)

Legend:
[1] = target: Epidermal growth factor receptor (Homo sapiens, UniProt P00533); test: Inhibition of recombinant human GST-tagged wild-type EGFR expressed in baculovirus infected Sf9 insect cells using poly (Glu,Tyr) 4:1 as substrate after 60 mins in presence of [gamma33P]ATP by scintillation counting method
[2] = target: Insulin-like growth factor 1 receptor (Homo sapiens, UniProt P08069); test: Inhibition of recombinant human GST-tagged IGF1R expressed in baculovirus infected Sf9 insect cells using poly (Glu,Tyr) 4:1 as substrate after 60 mins in presence of [gamma33P]ATP by scintillation counting method
Insulin-like growth factor 1 receptor, sequence (P08069 31-736 limits assumed): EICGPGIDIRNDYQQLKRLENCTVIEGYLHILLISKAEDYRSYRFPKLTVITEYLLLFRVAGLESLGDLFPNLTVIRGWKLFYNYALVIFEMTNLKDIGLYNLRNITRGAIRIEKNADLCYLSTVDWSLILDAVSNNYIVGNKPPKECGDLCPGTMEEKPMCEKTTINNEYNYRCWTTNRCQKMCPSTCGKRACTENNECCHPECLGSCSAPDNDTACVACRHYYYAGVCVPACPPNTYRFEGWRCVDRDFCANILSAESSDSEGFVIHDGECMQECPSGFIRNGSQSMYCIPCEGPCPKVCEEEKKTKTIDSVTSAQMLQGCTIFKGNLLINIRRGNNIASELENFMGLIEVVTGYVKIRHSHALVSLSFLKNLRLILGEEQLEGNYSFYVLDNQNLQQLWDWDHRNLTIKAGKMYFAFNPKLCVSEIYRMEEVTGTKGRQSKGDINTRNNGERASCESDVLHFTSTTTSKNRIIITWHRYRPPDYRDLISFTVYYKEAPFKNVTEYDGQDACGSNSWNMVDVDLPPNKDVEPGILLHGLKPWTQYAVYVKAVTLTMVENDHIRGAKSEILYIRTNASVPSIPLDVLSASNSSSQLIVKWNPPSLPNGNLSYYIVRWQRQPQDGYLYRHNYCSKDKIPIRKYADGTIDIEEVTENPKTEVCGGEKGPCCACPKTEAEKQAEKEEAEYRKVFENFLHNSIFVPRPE
Insulin-like growth factor 1 receptor, sequence (P08069 741-1367 limits assumed): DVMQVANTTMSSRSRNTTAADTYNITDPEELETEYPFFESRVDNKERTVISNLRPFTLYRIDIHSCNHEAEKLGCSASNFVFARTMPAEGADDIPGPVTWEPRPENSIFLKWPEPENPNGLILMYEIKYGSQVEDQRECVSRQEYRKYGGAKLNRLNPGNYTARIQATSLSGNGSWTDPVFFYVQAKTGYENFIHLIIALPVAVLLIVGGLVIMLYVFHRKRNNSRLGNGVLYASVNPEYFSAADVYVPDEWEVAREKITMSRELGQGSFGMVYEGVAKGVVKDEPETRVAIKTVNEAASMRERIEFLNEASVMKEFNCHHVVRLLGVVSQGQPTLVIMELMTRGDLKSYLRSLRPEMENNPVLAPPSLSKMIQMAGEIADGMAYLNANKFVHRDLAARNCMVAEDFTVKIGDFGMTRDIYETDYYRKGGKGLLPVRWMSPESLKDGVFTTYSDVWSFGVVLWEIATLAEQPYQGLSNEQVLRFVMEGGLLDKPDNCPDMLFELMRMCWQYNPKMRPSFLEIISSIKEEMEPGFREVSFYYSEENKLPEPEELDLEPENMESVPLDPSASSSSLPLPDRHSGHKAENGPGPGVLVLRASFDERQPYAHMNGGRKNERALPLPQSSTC

BT-549 = test: Growth inhibition of human BT549 cells at 10 uM after 48 hrs by sulforhodamine B assay relative to control; type: functional; conditions: BT-549, 48 h, read-out: GI
NCI-H460 = test: Growth inhibition of human NCI-H460 cells at 10 uM after 48 hrs by sulforhodamine B assay relative to control; type: functional; conditions: NCI-H460, 48 h, read-out: GI
Hs-578T = test: Growth inhibition of human Hs 578T cells at 10 uM after 48 hrs by sulforhodamine B assay relative to control; type: functional; conditions: read-out: GI
HOP-62 = test: Growth inhibition of human HOP62 cells at 10 uM after 48 hrs by sulforhodamine B assay relative to control; type: functional; conditions: HOP-62, 48 h, read-out: GI

Epidermal growth factor receptor, sequence (P00533 whole entry): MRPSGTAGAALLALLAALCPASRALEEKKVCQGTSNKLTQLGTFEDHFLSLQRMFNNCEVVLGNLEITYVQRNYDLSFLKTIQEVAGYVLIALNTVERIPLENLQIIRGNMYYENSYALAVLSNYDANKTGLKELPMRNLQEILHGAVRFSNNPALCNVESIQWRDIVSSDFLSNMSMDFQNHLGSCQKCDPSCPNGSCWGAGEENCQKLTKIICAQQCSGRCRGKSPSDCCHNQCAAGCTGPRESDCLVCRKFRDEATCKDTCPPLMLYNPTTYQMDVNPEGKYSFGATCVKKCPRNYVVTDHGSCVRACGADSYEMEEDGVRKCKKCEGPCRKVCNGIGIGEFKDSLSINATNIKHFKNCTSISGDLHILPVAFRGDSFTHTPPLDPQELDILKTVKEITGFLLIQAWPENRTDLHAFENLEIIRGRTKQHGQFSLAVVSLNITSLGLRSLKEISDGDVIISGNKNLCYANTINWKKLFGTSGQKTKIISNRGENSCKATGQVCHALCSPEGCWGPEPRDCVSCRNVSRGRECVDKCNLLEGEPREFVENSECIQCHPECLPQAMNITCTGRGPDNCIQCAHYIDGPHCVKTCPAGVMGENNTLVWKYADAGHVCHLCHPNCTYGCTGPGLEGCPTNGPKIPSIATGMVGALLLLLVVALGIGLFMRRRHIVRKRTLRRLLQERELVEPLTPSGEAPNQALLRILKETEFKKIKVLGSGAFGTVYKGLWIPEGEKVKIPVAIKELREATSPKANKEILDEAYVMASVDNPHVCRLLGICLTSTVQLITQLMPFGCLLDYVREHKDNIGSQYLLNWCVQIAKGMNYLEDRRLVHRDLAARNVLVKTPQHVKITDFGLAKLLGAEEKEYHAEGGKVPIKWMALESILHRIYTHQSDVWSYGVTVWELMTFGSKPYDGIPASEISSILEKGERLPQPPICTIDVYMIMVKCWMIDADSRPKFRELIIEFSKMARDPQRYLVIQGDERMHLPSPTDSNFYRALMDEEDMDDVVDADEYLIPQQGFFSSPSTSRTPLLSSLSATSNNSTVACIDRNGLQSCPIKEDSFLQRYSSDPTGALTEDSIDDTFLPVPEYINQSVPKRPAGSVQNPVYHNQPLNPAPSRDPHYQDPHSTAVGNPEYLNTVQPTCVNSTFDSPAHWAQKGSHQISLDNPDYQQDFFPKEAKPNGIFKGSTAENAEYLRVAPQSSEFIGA

SMILES	Ki [1]	Ki [2]	further results
COc1ccc(CNc2ccnc3oc4ccc([N+](=O)[O-])cc4c23)cc1	2050 nM	3400 nM	–
Nc1ccc2oc3nccc(NCc4cccc(Br)c4)c3c2c1	230 nM	–	inhibition of growth at 10 µM (BT-549): 29%; inhibition of growth at 10 µM (NCI-H460): 23%; inhibition of growth at 10 µM (Hs-578T): 16%; IC50 [2]: > 1 mM; inhibition of growth at 10 µM (HOP-62): 18%
Nc1cccc(CNc2ccnc3oc4ccc([N+](=O)[O-])cc4c23)c1	3590 nM	6180 nM	–
COc1ccc(CNc2ccnc3oc4ccccc4c23)cc1	–	1030 nM	–
COc1cccc(CNc2ccnc3[nH]c4ccc([N+](=O)[O-])cc4c23)c1	330 nM	890 nM	–
O=[N+]([O-])c1cccc(CNc2ccnc3oc4ccc([N+](=O)[O-])cc4c23)c1	930 nM	2390 nM	–
O=[N+]([O-])c1ccc2oc3nccc(NCc4cccc(Cl)c4)c3c2c1	1360 nM	2850 nM	–
Nc1ccc2[nH]c3nccc(NCc4cccc(Cl)c4)c3c2c1	140 nM	1920 nM	–
Nc1cccc(CNc2ccnc3oc4ccc(N)cc4c23)c1	940 nM	8930 nM	–
O=[N+]([O-])c1ccc2oc3nccc(NCc4ccc(Cl)cc4)c3c2c1	2520 nM	3540 nM	–
COc1cccc(CNc2ccnc3[nH]c4ccc(N)cc4c23)c1	320 nM	3560 nM	–
Nc1ccc2oc3nccc(NCc4ccc(Cl)cc4)c3c2c1	–	–	IC50 [1]: > 1 mM; IC50 [2]: > 1 mM
COc1cccc(CNc2ccnc3oc4ccc([N+](=O)[O-])cc4c23)c1	2740 nM	4560 nM	–
COc1ccc(CNc2ccnc3oc4ccc(N)cc4c23)cc1	–	–	IC50 [1]: > 1 mM; IC50 [2]: > 1 mM
Nc1ccc2[nH]c3nccc(NCc4cccc(Br)c4)c3c2c1	110 nM	2100 nM	–
O=[N+]([O-])c1ccc2oc3nccc(NCc4ccc(Br)cc4)c3c2c1	810 nM	2870 nM	–
Nc1ccc2oc3nccc(NCc4ccc(Br)cc4)c3c2c1	–	–	IC50 [1]: > 1 mM; IC50 [2]: > 1 mM

More lines, main results first:

Ki [1]	Ki [2]	SMILES	further results
110 nM	320 nM	O=[N+]([O-])c1ccc2[nH]c3nccc(NCc4cccc(Br)c4)c3c2c1	–
680 nM	2610 nM	O=[N+]([O-])c1ccc2oc3nccc(NCc4cccc(Br)c4)c3c2c1	–
170 nM	540 nM	COc1cccc(CNc2ccnc3oc4ccc(N)cc4c23)c1	inhibition of growth at 10 µM (BT-549): 43%; inhibition of growth at 10 µM (NCI-H460): 29%; inhibition of growth at 10 µM (Hs-578T): 16%; inhibition of growth at 10 µM (HOP-62): 28%
400 nM	4600 nM	Nc1ccc2oc3nccc(NCc4cccc(Cl)c4)c3c2c1	–
80 nM	280 nM	O=[N+]([O-])c1ccc2[nH]c3nccc(NCc4cccc(Cl)c4)c3c2c1	inhibition of growth at 10 µM (BT-549): 30%; inhibition of growth at 10 µM (NCI-H460): 73%; inhibition of growth at 10 µM (Hs-578T): 82%; inhibition of growth at 10 µM (HOP-62): 89%
